Results reported in patent US4663457A, “1-cyclopropyl-6,7-dihalo-1,4-dihydro-4-oxo-1,8-naphthyridine -3-carboxylic acid and their esters, useful as intermediates for preparing the 7-amine substituted naphthyridines” (Warner-Lambert Company, priority 1985, dated 1987).
Converted amounts (≈) assume the structure as drawn. Where two headings read alike, the source gives them in different places.

Assays:
Test in all cases: in vitro antibacterial activity, MIC by microtitration dilution method
Format in all cases: cell-based
[1] = system: Staphylococcus aureus H 228; details: H228, read-out: Minimal Inhibitory Concentration MIC
From the text: (§1) The compounds of the invention display antibacterial activity when tested by the microtitration dilution method as described in Heifetz, et al, Antimicr. Agents & Chemoth., 6, 124 (1974), which is incorporated herein by reference.
(§2) By use of the above referenced method, the followed minimum inhibitory concentration values (MICs in μg/ml) were obtained for representative compounds of the invention.

Proteus rettgeri M 1771 = details: Providencia rettgeri, M1771, read-out: Minimal Inhibitory Concentration MIC
From the text: as §1, §2

[2] = system: Pseudomonas aeruginosa UI-18; details: UI18, read-out: Minimal Inhibitory Concentration MIC
From the text: as §1, §2

Escherichia coli Vogel = details: read-out: Minimal Inhibitory Concentration MIC
From the text: as §1, §2

[3] = system: Staphylococcus aureus UC-76; details: UC76, read-out: Minimal Inhibitory Concentration MIC
From the text: as §1, §2

[4] = system: Enterobacter cloacae MA 2646; details: MA2646, read-out: Minimal Inhibitory Concentration MIC
From the text: as §1, §2

[5] = system: Klebsiella pneumoniae MGH-2; details: MGH2, read-out: Minimal Inhibitory Concentration MIC
From the text: as §1, §2

[6] = system: Streptococcus pneumoniae SV-1; details: SV1, read-out: Minimal Inhibitory Concentration MIC
From the text: as §1, §2

[7] = system: Streptococcus faecalis MGH-2; details: Enterococcus faecalis, MGH2, read-out: Minimal Inhibitory Concentration MIC
From the text: as §1, §2

[8] = system: Streptococcus pyogenes C-203
From the text: Agents & Chemoth., 6, 124 (1974), which is incorporated herein by reference.

[9] = C203, in vitro, Streptococcus pyogenes C-203, read-out: Minimal Inhibitory Concentration MIC

Row | Compound | MIC [1] [µg/mL] | MIC (Proteus rettgeri M 1771) [µg/mL] | MIC [2] [µg/mL] | MIC (Escherichia coli Vogel) [µg/mL] | MIC [3] [µg/mL] | MIC [4] [µg/mL] | MIC [5] [µg/mL] | MIC [6] [µg/mL] | MIC [7] [µg/mL] | MIC ([8]; Streptococcus pyogenes, C203, read-out: Minimal Inhibitory Concentration MIC) [µg/mL] | MIC [8, 9] [µg/mL]
1 | CN1CCN(c2nc3c(cc2F)c(=O)c(C(=O)O)cn3C2CC2)CC1 [Ex. 2, 1-Cyclopropyl-6-fluoro-1,4-dihydro-7-(4-methyl-1-piperazinyl)-4-oxo-1,8-naphthyridine-3-carboxylic acid] | 0.4 (≈ 1.15 µM) | 0.4 (≈ 1.15 µM) | 0.4 (≈ 1.15 µM) | ≤ 0.1 | 0.1 (≈ 0.289 µM) | ≤ 0.1 | ≤ 0.1 | 6.3 (≈ 18.2 µM) | 0.8 (≈ 2.31 µM) | 3.1 (≈ 8.95 µM) | –
2 | O=C(O)c1cn(C2CC2)c2c(F)c(N3CCC(O)C3)c(F)cc2c1=O (stereo not shown) [Ex. 4, 1-Cyclopropyl-6,8-difluoro-1,4-dihydro-7-(3-hydroxy-1-pyrrolidinyl)-4-oxo-3-quinolinecarboxylic acid] | 0.025 (≈ 0.0714 µM) | 0.2 (≈ 0.571 µM) | 0.8 (≈ 2.28 µM) | 0.1 (≈ 0.285 µM) | 0.013 (≈ 0.0371 µM) | 0.2 (≈ 0.571 µM) | 0.05 (≈ 0.143 µM) | 0.4 (≈ 1.14 µM) | 0.1 (≈ 0.285 µM) | – | 0.4 (≈ 1.14 µM)
3 | O=C(O)c1cn(C2CC2)c2c(F)c(N3CCNCC3)c(F)cc2c1=O [Ex. 3, 1-Cyclopropyl-6,8-difluoro-1,4-dihydro-4-oxo-7-(1-piperazinyl)-3-quinolinecarboxylic acid] | 0.4 (≈ 1.15 µM) | ≤ 0.1 | 0.2 (≈ 0.573 µM) | ≤ 0.1 | ≤ 0.1 | ≤ 0.1 | ≤ 0.1 | 0.8 (≈ 2.29 µM) | 0.4 (≈ 1.15 µM) | – | 0.4 (≈ 1.15 µM)
4 | O=C(O)c1cn(C2CC2)c2nc(N3CCNCC3)c(F)cc2c1=O [Ex. 1, 1-Cyclopropyl-6-fluoro-1,4-dihydro-4-oxo-7-(1-piperazinyl)-1,8-naphthyridine-3-carboxylic acid] | 1.6 (≈ 4.81 µM) | 0.2 (≈ 0.602 µM) | 0.2 (≈ 0.602 µM) | ≤ 0.1 | 0.4 (≈ 1.2 µM) | 0.1 (≈ 0.301 µM) | 0.1 (≈ 0.301 µM) | 1.6 (≈ 4.81 µM) | 1.6 (≈ 4.81 µM) | – | 1.6 (≈ 4.81 µM)
